Data set [1] in a line: Intrinsic clearance in human liver microsomes at 1 uM after 30 mins in presence of NADPH by LC-MS/MS analysis. It is filed as ADME. To be noted: read-out: CLH.
Data set [2] is described as follows: Solubility in fasted state simulated intestinal fluid irradiated ultrasonically for 10 mins followed by incubation for 24 hrs by HPLC-UV analysis. In kind it is ADME.
A short description of data set [3]: Solubility in 50 mM phosphate buffer at pH 6.5 irradiated ultrasonically for 10 mins followed by incubation for 24 hrs by HPLC-UV analysis. It is filed as physicochemical.
Data set [4] is described as follows: Intrinsic clearance in mouse liver microsomes at 1 uM after 30 mins in presence of NADPH by LC-MS/MS analysis. In kind it is ADME. The note with it: read-out: CLH.
Data set [5] has as its system Liver cytosol. The data set can be described thus: Drug metabolism in human liver cytosol at 1 uM assessed as N-(2-Methoxy-4-((3-(4-methylpiperazin-1-yl)propyl)carbamoyl)phenyl)-4-oxo-3,4-dihydrothieno[3,2-d]pyrimidine-7-carboxamide formation after 30 mins in presence of NADPH by LC-MS/MS analysis. It is filed as ADME. To be noted: 0.5 h.
Data set [6] is described as follows: Drug metabolism in mouse liver cytosol at 1 uM assessed as N-(2-Methoxy-4-((3-(4-methylpiperazin-1-yl)propyl)carbamoyl)phenyl)-4-oxo-3,4-dihydrothieno[3,2-d]pyrimidine-7-carboxamide formation after 30 mins in presence of NADPH by LC-MS/MS analysis. It is filed as ADME. To be noted: 0.5 h.
The target of data set [7] is T1, Mitogen-activated protein kinase kinase kinase 7 (Homo sapiens, UniProt O43318).
T1 sequence (O43318 whole entry): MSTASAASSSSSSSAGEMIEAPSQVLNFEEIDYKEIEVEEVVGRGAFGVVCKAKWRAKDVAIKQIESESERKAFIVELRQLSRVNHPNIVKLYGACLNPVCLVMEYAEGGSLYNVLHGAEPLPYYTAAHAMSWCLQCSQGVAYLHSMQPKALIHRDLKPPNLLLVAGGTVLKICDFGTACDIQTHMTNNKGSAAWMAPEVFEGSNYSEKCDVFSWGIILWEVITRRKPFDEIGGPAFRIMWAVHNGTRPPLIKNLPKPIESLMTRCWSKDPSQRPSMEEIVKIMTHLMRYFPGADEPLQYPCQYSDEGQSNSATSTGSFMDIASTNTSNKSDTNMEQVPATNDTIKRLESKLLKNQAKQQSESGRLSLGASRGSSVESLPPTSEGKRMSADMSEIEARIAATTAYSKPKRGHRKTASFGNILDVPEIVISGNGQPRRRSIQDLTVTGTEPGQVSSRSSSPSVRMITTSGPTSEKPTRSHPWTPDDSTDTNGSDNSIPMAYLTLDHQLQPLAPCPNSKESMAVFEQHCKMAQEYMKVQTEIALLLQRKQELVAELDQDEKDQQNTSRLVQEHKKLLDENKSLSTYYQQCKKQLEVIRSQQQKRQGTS
The data set can be described thus: Inhibition of recombinant TAK1 (unknown origin).

In data set [8] the target is T1, Mitogen-activated protein kinase kinase kinase 7. Put plainly: Inhibition of recombinant FLAG-tagged TAK1 kinase domain (unknown origin) expressed in baculovirus expression system coexpressing TAB using biotin-labeled MKK6kd substrate incubated for 1 hr by AlphaScreen assay.
Data set [9] has as its system Liver cytosol. The data set can be described thus: Drug level in human liver cytosol treated with N-(2-Methoxy-4-((3-(4-methylpiperazin-1-yl)propyl)carbamoyl)phenyl)thieno[3,2-d]pyrimidine-7-carboxamide after 30 mins in presence of NADPH by LC-MS/MS analysis. The note with it: 0.5 h. In kind it is ADME, tissue-based.
A short description of data set [10]: Drug level in mouse liver cytosol treated with N-(2-Methoxy-4-((3-(4-methylpiperazin-1-yl)propyl)carbamoyl)phenyl)thieno[3,2-d]pyrimidine-7-carboxamide after 30 mins in presence of NADPH by LC-MS/MS analysis. To be noted: 0.5 h. In kind it is ADME, tissue-based.
The nature of data set [11]: Apparent permeability in human Caco2 cells. In kind it is ADME, cell-based. The note with it: Caco-2.
Data set [12] has as its target T1, Mitogen-activated protein kinase kinase kinase 7. Put plainly: Inhibition of human recombinant TAK1 fused with TAB1 using MKK6 as substrate in presence of gamma-[33P]ATP.
Data set [13] shares this target. The data set can be described thus: Inhibition of TAK1 (unknown origin).

Converted amounts (≈) assume the structure as drawn. Where only a bound is given, the exact number is not on record here.

For `COc1cc(N2CCN(C)CC2)ccc1NC(=O)c1csc2cncnc12`, the microsomal CLint at 1 µM in data set [1] is 11 µL/min/mg. In addition, the solubility at 24 h is 351 µg/mL (≈ 915 µM) in data set [2] and 353 µg/mL (≈ 921 µM) in data set [3].

For the compound `COc1cc(C(=O)N2CCN(C)CC2)ccc1NC(=O)c1csc2cncnc12`, the microsomal CLint at 1 µM in [1] came out at 26 µL/min/mg. In addition, the solubility at 24 h is 312 µg/mL (≈ 758 µM) in data set [2] and 293 µg/mL (≈ 712 µM) in data set [3].

With `COc1cc(C(=O)NCCCN2CCN(C)CC2)ccc1NC(=O)c1csc2cncnc12`, the microsomal CLint at 1 µM was 21 µL/min/mg in data set [1] and 80 µL/min/mg in data set [4]. Besides, the Drug metabolism result (with Liver cytosol [5]; in [6]) was “metabolite_detected” in each case. Also, the results for the solubility at 24 h in data set [2] and in data set [3] were 420 µg/mL (≈ 896 µM) and 377 µg/mL (≈ 805 µM), respectively.

Regarding `Cc1cc(NC(=O)Nc2cc(C(C)(C)C)nn2-c2cccc(C#N)c2)ccc1Oc1ccncc1`, the IC50 in data set [7] was 156 nM.

For the compound `COc1cc2ncccc2cc1NC(=O)c1csc2cncnc12`, the solubility at 24 h in [2] and in data set [3] was less than 3 µg/mL in each case.

Take `CCc1cc(Nc2ncc(F)c(-c3cnc4cccnn34)n2)cc(OCCN2CCC(O)CC2)c1`: in [8], the IC50 turned out to be 8 nM.

As for `COc1cc(C(=O)NCCCN2CCN(C)CC2)ccc1NC(=O)c1csc2c(=O)[nH]cnc12`, the Drug metabolism result (with Liver cytosol [9]; in data set [10]) was “metabolite_detected” throughout.

Consider `CC(C)Oc1c(NC(=O)c2csc3c(=O)[nH]cnc23)cccc1C(=O)N1CCN(C)CC1`, for which the Papp in data set [11] was less than 1 ×10⁻⁶ cm/s.

Regarding `C[C@H]1OC2C3=C(C(=O)[C@@H]4O[C@@H]4[C@H]3O)C1[C@@H]1[C@@H](C)OC=C3[C@H](O)[C@H]4O[C@H]4C(=O)[C@@]321` (stereo partly specified), the IC50 in data set [12] amounted to 20000 nM.

Take `COCCN1CCN(Cc2ccc(-c3cc(NC(N)=O)c(C(N)=O)s3)cc2)CC1`: in [13], the IC50 was determined as 50 nM.

The values are drawn from ChEMBL document CHEMBL3822434 (Bioorg Med Chem, 2016).
